Measured values: patent US5262522A, “Receptor for oncostatin M and leukemia inhibitory factor” (Immunex Corporation, priority 1991, dated 1993)

Tested on: oncostatin M
Experiment: Oncostatin M binding assay (phthalate oil separation, Scatchard) on transfected COS-7 cells
Settings: cells preincubated with non-radiolabeled LIF before 125I-oncostatin M (curve B)
Source text: Oncostatin M may be purified from cells in which the protein is naturally found, or from cells transformed with an expression vector encoding oncostatin M. One source of oncostatin M is phorbol ester-treated U937 cells, as described by Zarling et al., PNAS U.S.A. 83:9739 (1986). Purification of recombinant oncostatin M is described by Linsley et al., J. Biol. Chem. 264:4282-4289 (1989), which is hereby incorporated by reference in its entirety.
Oncostatin M may be radiolabeled using any suitable conventional procedure, such as the radioiodination procedure employed to radiolabel LIF in Example 1. The radio-iodination of oncostatin M has also been described by Linsley et al., supra.
The resulting radiolabeled oncostatin M may be substituted for radiolabeled LIF (using the same concentrations and other reaction parameters) in the assay procedures described in Example 1 in order to detect proteins and cells that bind oncostatin M. An assay for binding of ^125 I-oncostatin M to cells is also described in Linsley et al., supra.
COS-7 cells transfected with vector(s) encoding gp130 or LIF-R were assayed for the ability to bind oncostatin M. In separate transfections, COS-7 cells were transfected with the following combinations of vectors. […]

“gp130 and LIF-R: receptor of gp130 and LIF-R co-expressed on COS-7 cells co-transfected with vectors B10G and pHLIFR-65” was tested, and the “binding of oncostatin M after preincubation with LIF” value was “did not bind oncostatin M in any measurable amount above that bound by the non-transfected COS-7 cells”.
